Assay results reported in patent US10618916B2, “Heterocyclic compounds as immunomodulators” (Incyte Corporation, priority 2018, dated 2020).
Where two headings read alike, the source gives them in different places.

Key:
[1] = molecular target: PD-1/PD-L1 protein/protein interaction (recombinant human PD-L1 and human PD-1) (Homo sapiens (Human), UniProt Q9NZQ7); assay: Homogeneous Time-Resolved Fluorescence (HTRF) PD-1/PD-L1 binding assay
Experimental: Example A. Homogeneous Time-Resolved Fluorescence (HTRF) PD-1/PD-L1 Binding Assay
The assays were conducted in a standard black 384-well polystyrene plate with a final volume of 20 μL. Inhibitors were first serially diluted in DMSO and then added to the plate wells before the addition of other reaction components. The final concentration of DMSO in the assay was 1%. The assays were carried out at 25° C. in the PBS buffer (pH 7.4) with 0.05% Tween-20 and 0.1% BSA. Recombinant human PD-L1 protein (19-238) with a His-tag at the C-terminus was purchased from AcroBiosystems (PD1-H5229). Recombinant human PD-1 protein (25-167) with Fc tag at the C-terminus was also purchased from AcroBiosystems (PD1-H5257). PD-L1 and PD-1 proteins were diluted in the assay buffer and 10 μL was added to the plate well. Plates were centrifuged and proteins were preincubated with inhibitors for 40 minutes. The incubation was followed by the addition of 10 μL of HTRF detection buffer supplemented with Europium cryptate-labeled anti-human IgG (PerkinElmer-AD0212) specific for Fc and anti-His antibody conjugated to SureLight®-Allophycocyanin (APC, PerkinElmer-AD0059H). After centrifugation, the plate was incubated at 25° C. for 60 min. before reading on a PHERAstar FS plate reader (665 nm/620 nm ratio). Final concentrations in the assay were—3 nM PD1, 10 nM PD-L1, 1 nM europium anti-human IgG and 20 nM anti-His-Allophycocyanin. IC50 determination was performed by fitting the curve of percent control activity versus the log of the inhibitor concentration using the GraphPad Prism 5.0 software.

[2] = tested on: U2OS/PD-L1 cells and Jurkat-PD-1-SHP cells; assay: Src homology region 2 domain-containing phosphatase (SHP) assay; format: cell-based
Experimental: Example B. Src Homology Region 2 Domain-Containing Phosphatase (SHP) Assay
U2OS/PD-L1 cells (DiscoveRx Corporation) were maintained in McCoy's 5A medium with addition of 10% FBS, 0.25 μg/ml Puromycin. After removing the culture media, the cell medium was replaced with assay medium (RPMI1640 medium with 1% FBS). The U2OS/PD-L1 cells were then added in 384-well black clear bottom assay plate (CELLCOAT® Tissue Culture Plates, Greiner Bio-One) at 5000 cells per well in 20 μL assay medium. Test compounds were prepared by serial dilution in DMSO and 125 nL compound were first transferred to the 384 REMP plate well (Thermofisher) by ECHO liquid handler (Labcyte) followed with addition of 27.5 μL assay medium. 5 μL/well compounds in the assay medium were transferred to the cell plate with 0.05% DMSO in the final assay at […]. Jurkat-PD-1-SHP cells (DiscoveRx Corporation) were cultured in RPMI1640 medium supplemented with 10% FBS, 250 μg/ml Hygromycin B, 500 μg/ml G418. After the replacement of culture media with assay medium, 5,000 Jurkat-PD-1-SHP cells in 20 μL were dispensed into each well. The assay plate was incubated at 37° C., 5% CO2 for 2 hours before 2.5 μL PathHunter reagent 1 (DiscoveRx Corporation) were added to each well. The assay plate was shaken for 1 min at 350 rpm in the dark followed with addition of 10 μL PathHunter reagent 2 (DiscoveRx Corporation). Chemiluminescent signal was recorded with TopCount reader (Perkin Elmer) after incubation at room temperature for 1 hour. Wells with DMSO were served as the positive controls and wells containing no cells were used as negative controls. IC50 determination was performed by fitting the curve of percentage of control activity versus the log of the compound concentration using the GraphPad Prism 6.0 software.

[3] = tested on: PD-L1 aAPC/CHO-K1 cells and Jurkat-PD-1-NFAT effector cells; assay: Nuclear factor of activated T-cells (NFAT) assay; format: cell-based
Experimental: Example C. Nuclear Factor of Activated T-Cells (NFAT) Assay
PD-L1 aAPC/CHO-K1 cells (Promega) were maintained in F-12 medium with addition of 10% FBS, 200 μg/ml Hygromycin B, 250 μg/ml Geneticin (G418). Jurkat-PD-1-NFAT effector cells (Promega) were cultured in RPMI 1640 medium supplemented with 10% FBS, 100 μg/ml Hygromycin B, 500 μg/ml G418. The culture media of PD-L1 aAPC/CHO-K1 cells were first replaced with assay medium (RPMI1640 medium with 1% FBS). The PD-L1 aAPC/CHO-K1 cells were then added in a white 384-well white clear bottom assay plate (CELLCOAT® Tissue Culture Plates, Greiner Bio-One) at 8000 per well in 10 μL assay medium. Test compounds were prepared by serial dilution in DMSO and 0.8 μL test compounds in DMSO were first transferred to the 384 REMP plate well (Thermofisher) by PlateMate Plus (Thermofisher) followed with addition of 50 μL plating medium. 5 μL compounds in the assay medium were transferred to the cells with 0.4% DMSO in the final assay at 2 μM. After removing the culture media, 10,000 Jurkat-PD-1-NFAT effector cells in 5 μL assay medium was dispensed into each well. The assay plate was incubated at 37° C., 5% CO2 for 24 hours. After the assay plate was equilibrated to room temp for 15 minutes, 20 µL/well of Bio-Glo™ reagent (Promega) were added. After 8 minutes incubation at room temperature, luminescence was read at with Pherastar microplate reader (BMG Labtech). The fold of induction (FOI) was calculated based on the ratio of luminescence normalized to the DMSO wells within each assay plate. The maximum percentage of induction was reported based on the ratio between the highest FOI of each compound and the maximum FOI of control compound within each assay plate. Wells with DMSO were served as the negative controls and wells containing control compound with the highest FOI were used as positive controls. EC50 determination was performed by fitting the curve of percent control activity versus the log of the compound concentration using the GraphPad Prism 6.0 software.

Sequence of PD-1/PD-L1 protein/protein interaction (recombinant human PD-L1 and human PD-1) (Q9NZQ7 19-238): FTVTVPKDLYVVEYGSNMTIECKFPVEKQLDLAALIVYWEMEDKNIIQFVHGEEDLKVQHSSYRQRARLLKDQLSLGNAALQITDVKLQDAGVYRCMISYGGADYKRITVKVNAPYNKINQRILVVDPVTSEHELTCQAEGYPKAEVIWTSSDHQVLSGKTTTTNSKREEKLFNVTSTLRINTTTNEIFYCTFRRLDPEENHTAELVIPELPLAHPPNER

SMILES	IC50 [1] [µM]	IC50 [2] [µM]	EC50 [3] [µM]	IC50 ([2]; Homo sapiens, U2OS) [µM]	EC50 ([3]; Cricetulus griseus, CHO-K1) [µM]
Cc1c(NC(=O)c2nc3c(n2C)CCN(C2CCC(O)CC2)C3)cccc1-c1cccc(NC(=O)c2nc3c(n2C)CCN(CCC24CCC(C(=O)O)(CC2)C4)C3)c1Cl (single isomer, unassigned) [61 (compound 2), 4-(2-(2-((2-chloro-3′-(5-(4-hydroxycyclohexyl)-1-methyl-4,5,6,7-tetrahydro-1H-imidazo[4,5-c]pyridine-2-carboxamido)-2′-methyl-[1,1′-biphenyl]-3-yl)carbamoyl)-1-methyl-1,4,6,7-tetrahydro-5H-imidazo[4,5-c]pyridin-5-yl)ethyl)bicyclo[2.2.1]heptane-1-carboxylic acid]	≤ 0.005	≤ 0.01	0.01 to 0.1	–	–
CN1CCc2c(nc(C(=O)Nc3cccc(-c4cccc(NC(=O)c5nc6c(n5C)CCN(CCC57CCC(C(=O)O)(CC5)C7)C6)c4Cl)c3Cl)n2C)C1 [Example 3, 4-(2-(2-((2,2′-dichloro-3′-(1,5-dimethyl-4,5,6,7-tetrahydro-1H-imidazo[4,5-c]pyridine-2-carboxamido)-[1,1′-biphenyl]-3-yl)carbamoyl)-1-methyl-1,4,6,7-tetrahydro-5H-imidazo[4,5-c]pyridin-5-yl)ethyl)bicyclo[2.2.1]heptane-1-carboxylic acid]	≤ 0.005	–	–	≤ 0.01	0.01 to 0.1
CCN1CCc2c(nc(C(=O)Nc3cccc(-c4cccc(NC(=O)c5nc6c(n5C)CCN(CCC57CCC(C(=O)O)(CC5)C7)C6)c4Cl)c3Cl)n2C)C1 [Example 4, 4-(2-(2-((2,2′-dichloro-3′-(5-ethyl-1-methyl-4,5,6,7-tetrahydro-1H-imidazo[4,5-c]pyridine-2-carboxamido)-[1,1′-biphenyl]-3-yl)carbamoyl)-1-methyl-1,4,6,7-tetrahydro-5H-imidazo[4,5-c]pyridin-5-yl)ethyl)bicyclo[2.2.1]heptane-1-carboxylic acid]	≤ 0.005	–	–	≤ 0.01	0.01 to 0.1
Cn1c(C(=O)Nc2cccc(-c3cccc(NC(=O)c4nc5c(n4C)CCN(C4CCOCC4)C5)c3C#N)c2Cl)nc2c1CCN(CCC13CCC(C(=O)O)(CC1)C3)C2 [Example 47, 4-(2-(2-((2-chloro-2′-cyano-3′-(1-methyl-5-(tetrahydro-2H-pyran-4-yl)-4,5,6,7-tetrahydro-1H-imidazo[4,5-c]pyridine-2-carboxamido)-[1,1′-biphenyl]-3-yl)carbamoyl)-1-methyl-1,4,6,7-tetrahydro-5H-imidazo[4,5-c]pyridin-5-yl)ethyl)bicyclo[2.2.1]heptane-1-carboxylic acid]	≤ 0.005	–	–	–	0.01 to 0.1
C[C@@H](O)CN1CCc2c(nc(C(=O)Nc3cccc(-c4cccc(NC(=O)c5nc6c(n5C)CCN(CCC57CCC(C(=O)O)(CC5)C7)C6)c4Cl)c3C#N)n2C)C1 [Example 49, (R)-4-(2-(2-((2-chloro-2′-cyano-3′-(5-(2-hydroxypropyl)-1-methyl-4,5,6,7-tetrahydro-1H-imidazo[4,5-c]pyridine-2-carboxamido)-[1,1′-biphenyl]-3-yl)carbamoyl)-1-methyl-1,4,6,7-tetrahydro-5H-imidazo[4,5-c]pyridin-5-yl)ethyl)bicyclo[2.2.1]heptane-1-carboxylic Acid]	≤ 0.005	–	–	–	0.01 to 0.1
Cn1c(C(=O)Nc2cccc(-c3cccc(NC(=O)c4nc5c(n4C)CCN(CCO)C5)c3C#N)c2Cl)nc2c1CCN(CCC13CCC(C(=O)O)(CC1)C3)C2 [Example 50, 4-(2-(2-((2-chloro-2′-cyano-3′-(5-(2-hydroxyethyl)-1-methyl-4,5,6,7-tetrahydro-1H-imidazo[4,5-c]pyridine-2-carboxamido)-[1,1′-biphenyl]-3-yl)carbamoyl)-1-methyl-1,4,6,7-tetrahydro-5H-imidazo[4,5-c]pyridin-5-yl)ethyl)bicyclo[2.2.1]heptane-1-carboxylic acid]	≤ 0.005	–	–	–	0.01 to 0.1
